According to publication doi:10.1101/208439v1 (biorxiv, 2017):
pIC50: −log10 of the molar value. Read-outs that look alike come from different tables or passages of the source.

What was measured:
NSD1 = target: T1, NSD1 (Homo sapiens, UniProt Q96L73); experiment: HotSpot [3H]SAM filter-binding methyltransferase assay; type: biochemical; conditions: nucleosomes, […] SAM, pH […] MgCl2, […] DTT, […] °C, single experiment
T1 construct: residues 1538-2696, N-terminal His tag, insect cell/baculovirus
T1 sequence (Q96L73 1538-2696): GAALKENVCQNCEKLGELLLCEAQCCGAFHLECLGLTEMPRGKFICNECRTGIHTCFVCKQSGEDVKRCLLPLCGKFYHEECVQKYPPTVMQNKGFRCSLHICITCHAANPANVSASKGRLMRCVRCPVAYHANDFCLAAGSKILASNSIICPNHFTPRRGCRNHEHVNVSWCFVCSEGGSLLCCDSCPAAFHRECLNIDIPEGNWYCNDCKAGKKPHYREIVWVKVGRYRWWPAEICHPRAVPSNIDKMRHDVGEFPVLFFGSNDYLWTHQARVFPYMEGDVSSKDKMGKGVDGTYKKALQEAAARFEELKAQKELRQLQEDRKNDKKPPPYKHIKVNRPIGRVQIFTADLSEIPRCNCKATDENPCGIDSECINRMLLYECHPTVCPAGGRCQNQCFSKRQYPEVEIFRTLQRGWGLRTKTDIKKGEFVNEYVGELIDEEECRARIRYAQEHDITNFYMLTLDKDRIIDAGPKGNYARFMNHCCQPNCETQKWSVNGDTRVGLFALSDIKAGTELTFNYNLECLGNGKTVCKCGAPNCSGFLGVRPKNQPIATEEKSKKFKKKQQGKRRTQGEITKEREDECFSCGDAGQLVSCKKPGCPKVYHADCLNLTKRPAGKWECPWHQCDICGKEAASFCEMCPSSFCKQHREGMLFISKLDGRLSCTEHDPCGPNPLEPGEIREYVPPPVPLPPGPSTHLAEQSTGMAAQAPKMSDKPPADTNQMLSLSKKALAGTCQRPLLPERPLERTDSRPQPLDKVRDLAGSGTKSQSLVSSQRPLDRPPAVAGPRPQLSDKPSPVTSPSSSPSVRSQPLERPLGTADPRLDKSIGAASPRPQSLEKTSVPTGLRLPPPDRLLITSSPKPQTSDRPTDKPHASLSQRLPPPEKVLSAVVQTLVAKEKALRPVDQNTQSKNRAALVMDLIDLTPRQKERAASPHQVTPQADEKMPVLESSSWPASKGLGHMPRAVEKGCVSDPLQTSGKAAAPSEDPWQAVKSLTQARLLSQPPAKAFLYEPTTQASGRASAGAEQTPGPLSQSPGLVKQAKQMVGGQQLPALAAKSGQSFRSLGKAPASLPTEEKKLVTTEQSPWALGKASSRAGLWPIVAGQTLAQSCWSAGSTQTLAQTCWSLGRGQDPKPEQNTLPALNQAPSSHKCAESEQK

EZH2 Complex = target: T2, EZH2 Complex (Homo sapiens, UniProt Q15910); experiment: as above; type: biochemical
T2 construct: five-member complex, Flag-EED, other subunits His-tagged, insect cells; with Zinc finger protein AEBP2; Polycomb protein EED; Polycomb protein SUZ12

DNMT1 = DNMT1 (Homo sapiens, UniProt P26358); experiment: biochemical
SET8 = target: T3, SET8 (Homo sapiens, UniProt Q9NQR1); experiment: biochemical
T3 construct: gene KMT5A
T3 sequence (Q9NQR1 1-393): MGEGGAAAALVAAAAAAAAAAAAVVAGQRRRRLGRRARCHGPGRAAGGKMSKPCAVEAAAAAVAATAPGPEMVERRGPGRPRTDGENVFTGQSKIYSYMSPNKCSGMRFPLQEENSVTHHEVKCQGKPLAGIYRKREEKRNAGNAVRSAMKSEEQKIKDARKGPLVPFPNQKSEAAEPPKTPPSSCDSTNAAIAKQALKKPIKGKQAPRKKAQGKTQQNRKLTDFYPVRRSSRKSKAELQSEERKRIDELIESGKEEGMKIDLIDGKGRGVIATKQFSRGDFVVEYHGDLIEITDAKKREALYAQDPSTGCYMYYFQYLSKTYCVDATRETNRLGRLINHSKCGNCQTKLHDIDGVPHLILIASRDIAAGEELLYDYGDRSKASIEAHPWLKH

ASH1L = ASH1L (Homo sapiens, UniProt Q9NR48); experiment: HotSpot [3H]SAM filter-binding methyltransferase assay; type: biochemical; set-up: residues 2046-2330, N-terminal His tag, E. coli
SETD2 = target: T4, SETD2 (Homo sapiens, UniProt Q9BYW2); experiment: as above; type: biochemical; set-up: residues 1434-1711, N-terminal GST fusion, E. coli
T4 sequence (Q9BYW2 1434-1711): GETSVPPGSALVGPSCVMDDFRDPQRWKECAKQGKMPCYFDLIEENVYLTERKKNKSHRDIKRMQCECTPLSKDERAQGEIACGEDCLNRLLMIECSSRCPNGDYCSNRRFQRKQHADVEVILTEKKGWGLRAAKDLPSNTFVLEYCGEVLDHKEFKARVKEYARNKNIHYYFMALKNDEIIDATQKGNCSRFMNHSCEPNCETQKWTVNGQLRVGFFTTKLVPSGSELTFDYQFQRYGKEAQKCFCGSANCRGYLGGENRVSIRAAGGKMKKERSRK

MLL1 Complex = MLL1 Complex (Homo sapiens, UniProt Q03164); experiment: as above; type: biochemical; set-up: gene KMT2A; five-member complex, His-tagged subunits, E. coli; ASH2L isoform of NM_001105214; with WD repeat-containing protein 5; Set1/Ash2 histone methyltransferase complex subunit ASH2; Protein dpy-30 homolog
PRMT5 = PRMT5 (Homo sapiens, UniProt O14744); experiment: biochemical
[1] = read-out: DA3003-1 IC50, inhibitor
[2] = nucleosomes, […] SAM, pH […] MgCl2, […] DTT, […] °C, single experiment

Chain of MLL1 Complex (Q9UBL3 96-628): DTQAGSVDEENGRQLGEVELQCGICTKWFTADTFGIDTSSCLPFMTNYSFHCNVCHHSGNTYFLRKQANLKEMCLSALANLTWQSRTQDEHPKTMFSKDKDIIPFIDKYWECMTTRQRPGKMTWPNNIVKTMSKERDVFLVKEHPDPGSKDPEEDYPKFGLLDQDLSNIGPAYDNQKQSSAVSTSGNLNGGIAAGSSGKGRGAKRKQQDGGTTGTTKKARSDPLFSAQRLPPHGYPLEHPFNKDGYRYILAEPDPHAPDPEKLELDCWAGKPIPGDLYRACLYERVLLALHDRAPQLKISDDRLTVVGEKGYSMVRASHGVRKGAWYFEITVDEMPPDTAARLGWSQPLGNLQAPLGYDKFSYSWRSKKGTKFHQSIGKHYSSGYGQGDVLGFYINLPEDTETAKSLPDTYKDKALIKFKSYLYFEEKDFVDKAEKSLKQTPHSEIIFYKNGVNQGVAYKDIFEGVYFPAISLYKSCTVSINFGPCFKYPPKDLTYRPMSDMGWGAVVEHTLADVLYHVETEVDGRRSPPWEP
Chain of MLL1 Complex (Q03164 3745-3969): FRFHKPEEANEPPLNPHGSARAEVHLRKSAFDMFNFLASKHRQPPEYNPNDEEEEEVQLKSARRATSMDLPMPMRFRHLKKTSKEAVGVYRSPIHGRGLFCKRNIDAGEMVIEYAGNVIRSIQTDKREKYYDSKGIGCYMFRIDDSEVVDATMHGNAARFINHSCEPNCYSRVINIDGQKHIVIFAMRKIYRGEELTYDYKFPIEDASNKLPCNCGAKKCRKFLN
Chain of MLL1 Complex (Q9C005 whole entry, further chain, canonical isoform): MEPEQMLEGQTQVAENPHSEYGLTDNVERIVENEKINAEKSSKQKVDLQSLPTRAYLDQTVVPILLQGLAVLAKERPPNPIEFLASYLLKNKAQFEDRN
Chain of MLL1 Complex (Q15291 whole entry, further chain, canonical isoform): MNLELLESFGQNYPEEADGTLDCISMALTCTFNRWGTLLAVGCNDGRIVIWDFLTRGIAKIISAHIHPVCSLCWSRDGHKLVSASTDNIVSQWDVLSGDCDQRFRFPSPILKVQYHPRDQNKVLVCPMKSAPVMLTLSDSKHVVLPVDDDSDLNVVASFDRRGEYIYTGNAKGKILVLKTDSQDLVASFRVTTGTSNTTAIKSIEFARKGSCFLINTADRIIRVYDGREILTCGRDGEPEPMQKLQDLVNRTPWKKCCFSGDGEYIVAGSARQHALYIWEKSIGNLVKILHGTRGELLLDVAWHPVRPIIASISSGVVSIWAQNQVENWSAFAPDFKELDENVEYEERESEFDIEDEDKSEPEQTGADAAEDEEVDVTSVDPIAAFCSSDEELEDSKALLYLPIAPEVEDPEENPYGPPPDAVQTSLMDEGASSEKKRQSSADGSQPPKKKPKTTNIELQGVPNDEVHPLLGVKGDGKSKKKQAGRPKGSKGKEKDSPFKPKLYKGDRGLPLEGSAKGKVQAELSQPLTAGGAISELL
T2 sequence (Q15910 2-746): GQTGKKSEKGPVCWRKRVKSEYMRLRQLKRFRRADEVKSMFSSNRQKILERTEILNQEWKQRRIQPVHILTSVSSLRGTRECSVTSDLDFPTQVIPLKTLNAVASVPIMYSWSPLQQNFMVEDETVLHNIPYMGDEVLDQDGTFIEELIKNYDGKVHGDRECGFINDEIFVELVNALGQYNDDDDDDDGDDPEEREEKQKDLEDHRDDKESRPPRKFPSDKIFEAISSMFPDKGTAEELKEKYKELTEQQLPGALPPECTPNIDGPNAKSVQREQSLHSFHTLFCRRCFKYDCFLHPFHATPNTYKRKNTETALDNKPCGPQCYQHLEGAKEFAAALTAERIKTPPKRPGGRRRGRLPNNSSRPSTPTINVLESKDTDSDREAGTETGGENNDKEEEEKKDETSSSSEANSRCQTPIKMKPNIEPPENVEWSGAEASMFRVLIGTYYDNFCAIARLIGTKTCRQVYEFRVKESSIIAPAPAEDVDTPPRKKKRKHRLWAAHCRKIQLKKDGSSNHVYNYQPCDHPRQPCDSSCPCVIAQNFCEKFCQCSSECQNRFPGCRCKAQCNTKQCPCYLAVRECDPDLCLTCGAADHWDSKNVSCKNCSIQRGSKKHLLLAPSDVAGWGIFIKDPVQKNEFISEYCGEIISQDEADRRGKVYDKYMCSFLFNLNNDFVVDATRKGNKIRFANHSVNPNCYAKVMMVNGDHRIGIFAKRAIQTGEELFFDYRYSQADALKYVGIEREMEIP
T2 sequence (O75530 2-441 partner): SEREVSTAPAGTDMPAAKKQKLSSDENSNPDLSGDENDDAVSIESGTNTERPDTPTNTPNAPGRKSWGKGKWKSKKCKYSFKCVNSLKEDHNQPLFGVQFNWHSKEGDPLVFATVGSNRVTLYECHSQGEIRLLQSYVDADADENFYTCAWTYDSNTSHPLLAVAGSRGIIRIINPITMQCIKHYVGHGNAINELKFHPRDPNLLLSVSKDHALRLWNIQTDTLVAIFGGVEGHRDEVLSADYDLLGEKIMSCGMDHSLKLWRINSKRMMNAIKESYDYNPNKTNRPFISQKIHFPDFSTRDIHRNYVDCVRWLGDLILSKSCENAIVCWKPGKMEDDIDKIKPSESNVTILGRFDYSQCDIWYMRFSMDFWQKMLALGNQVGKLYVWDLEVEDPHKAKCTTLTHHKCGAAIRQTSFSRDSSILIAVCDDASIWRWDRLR
T2 sequence (Q15022 2-739 partner): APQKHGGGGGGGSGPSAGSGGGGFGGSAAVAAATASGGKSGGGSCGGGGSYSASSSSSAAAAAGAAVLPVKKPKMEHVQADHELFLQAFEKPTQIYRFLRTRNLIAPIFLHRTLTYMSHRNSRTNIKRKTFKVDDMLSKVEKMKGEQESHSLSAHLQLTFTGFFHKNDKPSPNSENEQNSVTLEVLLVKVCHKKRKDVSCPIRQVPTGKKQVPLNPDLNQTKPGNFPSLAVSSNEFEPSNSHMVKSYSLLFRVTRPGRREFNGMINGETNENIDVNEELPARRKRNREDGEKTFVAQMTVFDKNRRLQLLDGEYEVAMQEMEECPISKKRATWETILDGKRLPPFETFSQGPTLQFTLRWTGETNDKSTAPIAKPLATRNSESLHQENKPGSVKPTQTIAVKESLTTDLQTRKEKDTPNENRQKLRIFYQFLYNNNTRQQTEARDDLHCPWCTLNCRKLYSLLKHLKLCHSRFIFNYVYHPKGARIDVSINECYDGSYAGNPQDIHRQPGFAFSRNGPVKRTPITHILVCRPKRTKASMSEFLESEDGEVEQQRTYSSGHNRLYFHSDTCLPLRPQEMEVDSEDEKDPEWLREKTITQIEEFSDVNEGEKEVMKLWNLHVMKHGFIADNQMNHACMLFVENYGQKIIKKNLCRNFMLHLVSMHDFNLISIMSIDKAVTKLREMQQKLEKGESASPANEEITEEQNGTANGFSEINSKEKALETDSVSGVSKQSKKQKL
T2 sequence (Q09028 2-425 partner): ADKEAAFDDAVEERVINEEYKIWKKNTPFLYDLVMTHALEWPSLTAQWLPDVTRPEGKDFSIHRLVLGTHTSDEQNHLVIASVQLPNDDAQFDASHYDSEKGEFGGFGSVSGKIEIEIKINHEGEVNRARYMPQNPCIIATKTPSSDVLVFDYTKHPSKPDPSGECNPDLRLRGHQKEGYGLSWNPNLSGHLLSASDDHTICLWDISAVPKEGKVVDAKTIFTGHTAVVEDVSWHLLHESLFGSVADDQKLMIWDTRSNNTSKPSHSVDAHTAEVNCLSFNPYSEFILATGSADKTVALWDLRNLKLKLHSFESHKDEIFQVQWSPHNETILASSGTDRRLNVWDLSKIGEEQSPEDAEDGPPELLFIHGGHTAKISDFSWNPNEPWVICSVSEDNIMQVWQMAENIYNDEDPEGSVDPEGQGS
T2 sequence (Q6ZN18 2-517 partner): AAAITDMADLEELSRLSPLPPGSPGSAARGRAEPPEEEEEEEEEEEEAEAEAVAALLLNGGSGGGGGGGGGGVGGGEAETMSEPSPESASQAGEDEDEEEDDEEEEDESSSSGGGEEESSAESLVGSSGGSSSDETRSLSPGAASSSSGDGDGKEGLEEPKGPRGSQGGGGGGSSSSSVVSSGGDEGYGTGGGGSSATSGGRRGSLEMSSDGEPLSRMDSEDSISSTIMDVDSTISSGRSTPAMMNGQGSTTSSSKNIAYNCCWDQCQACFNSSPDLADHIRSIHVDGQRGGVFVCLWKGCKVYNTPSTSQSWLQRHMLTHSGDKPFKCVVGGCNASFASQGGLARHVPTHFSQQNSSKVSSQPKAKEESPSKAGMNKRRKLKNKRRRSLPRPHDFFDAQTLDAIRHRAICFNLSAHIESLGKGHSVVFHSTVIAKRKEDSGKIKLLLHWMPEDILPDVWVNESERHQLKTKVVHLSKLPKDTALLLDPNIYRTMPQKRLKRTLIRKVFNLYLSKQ
Chain of PRMT5 (O14744 whole entry): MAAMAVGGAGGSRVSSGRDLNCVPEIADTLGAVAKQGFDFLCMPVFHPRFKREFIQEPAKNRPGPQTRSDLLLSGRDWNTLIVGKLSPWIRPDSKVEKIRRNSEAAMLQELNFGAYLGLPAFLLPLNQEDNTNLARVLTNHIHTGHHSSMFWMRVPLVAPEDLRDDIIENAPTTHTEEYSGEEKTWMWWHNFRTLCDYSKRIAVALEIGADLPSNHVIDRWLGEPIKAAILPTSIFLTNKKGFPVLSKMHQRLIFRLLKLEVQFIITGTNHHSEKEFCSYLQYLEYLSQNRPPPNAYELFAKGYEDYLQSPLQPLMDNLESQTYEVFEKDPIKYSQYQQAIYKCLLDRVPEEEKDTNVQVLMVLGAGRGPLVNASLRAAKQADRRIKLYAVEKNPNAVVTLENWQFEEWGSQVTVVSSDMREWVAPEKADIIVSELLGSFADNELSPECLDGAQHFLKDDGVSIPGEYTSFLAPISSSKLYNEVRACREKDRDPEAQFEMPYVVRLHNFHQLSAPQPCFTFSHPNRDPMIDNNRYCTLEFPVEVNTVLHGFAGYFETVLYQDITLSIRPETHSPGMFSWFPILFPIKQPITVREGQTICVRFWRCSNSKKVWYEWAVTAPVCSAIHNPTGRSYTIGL

## CC1(C)CCC(CN2CCN(c3ccc(C(=O)NS(=O)(=O)c4ccc(NCC5CCOCC5)c([N+](=O)[O-])c4)c(Oc4cnc5[nH]ccc5c4)c3)CC2)=C(c2ccc(Cl)cc2)C1 [ABT-199]
NSD1
  pIC50: 5.62
EZH2 Complex
  pIC50: 4.64
DNMT1
  pIC50: 4.36
SET8
  pIC50: 5.28
ASH1L
  pIC50: 5.48
SETD2
  pIC50: 5.48
MLL1 Complex
  pIC50: 6.14

## O=C1C(Cl)=C(NCCN2CCOCC2)C(=O)c2ncccc21 [DA3003-1]
NSD1
  pIC50: 6.96
EZH2 Complex
  pIC50: 6.34
PRMT5; [1]
  pIC50: 6.19
DNMT1; [1]
  pIC50: 5.77
SET8; [1]
  pIC50: 5.36
ASH1L
  pIC50: 6.70
SETD2
  pIC50: 6.68
MLL1 Complex
  pIC50: 6.60

## COc1cccc(-n2nc(C(=O)O)cc2-c2ccc(C3CCCCC3)c(Cl)c2)c1 [TC LPA5 4]
NSD1
  pIC50: 4.92
EZH2 Complex; core histone, […] SAM, pH […] EDTA, […] DTT, […] °C, single experiment
  pIC50: 4.40
PRMT5
  pIC50: 4.77
DNMT1
  pIC50: 4.92
SET8
  pIC50: 4.36
ASH1L; [2]
  pIC50: 5.04
SETD2; [2]
  pIC50: 4.89
MLL1 Complex; [2]
  pIC50: 5.49
